This assay has as its target T1, IGFR kinase (Homo sapiens, UniProt P08069).
T1 construct: purchased Millipore
Briefly: Enzyme assay (c), IGFR kinase, Caliper LabChip. It is filed as biochemical. The settings on record: 30 nM IGFR kinase, 6 uM ATP, 3 uM peptide mix; read-out: IGFR IC50.
T1 sequence (P08069 31-1367): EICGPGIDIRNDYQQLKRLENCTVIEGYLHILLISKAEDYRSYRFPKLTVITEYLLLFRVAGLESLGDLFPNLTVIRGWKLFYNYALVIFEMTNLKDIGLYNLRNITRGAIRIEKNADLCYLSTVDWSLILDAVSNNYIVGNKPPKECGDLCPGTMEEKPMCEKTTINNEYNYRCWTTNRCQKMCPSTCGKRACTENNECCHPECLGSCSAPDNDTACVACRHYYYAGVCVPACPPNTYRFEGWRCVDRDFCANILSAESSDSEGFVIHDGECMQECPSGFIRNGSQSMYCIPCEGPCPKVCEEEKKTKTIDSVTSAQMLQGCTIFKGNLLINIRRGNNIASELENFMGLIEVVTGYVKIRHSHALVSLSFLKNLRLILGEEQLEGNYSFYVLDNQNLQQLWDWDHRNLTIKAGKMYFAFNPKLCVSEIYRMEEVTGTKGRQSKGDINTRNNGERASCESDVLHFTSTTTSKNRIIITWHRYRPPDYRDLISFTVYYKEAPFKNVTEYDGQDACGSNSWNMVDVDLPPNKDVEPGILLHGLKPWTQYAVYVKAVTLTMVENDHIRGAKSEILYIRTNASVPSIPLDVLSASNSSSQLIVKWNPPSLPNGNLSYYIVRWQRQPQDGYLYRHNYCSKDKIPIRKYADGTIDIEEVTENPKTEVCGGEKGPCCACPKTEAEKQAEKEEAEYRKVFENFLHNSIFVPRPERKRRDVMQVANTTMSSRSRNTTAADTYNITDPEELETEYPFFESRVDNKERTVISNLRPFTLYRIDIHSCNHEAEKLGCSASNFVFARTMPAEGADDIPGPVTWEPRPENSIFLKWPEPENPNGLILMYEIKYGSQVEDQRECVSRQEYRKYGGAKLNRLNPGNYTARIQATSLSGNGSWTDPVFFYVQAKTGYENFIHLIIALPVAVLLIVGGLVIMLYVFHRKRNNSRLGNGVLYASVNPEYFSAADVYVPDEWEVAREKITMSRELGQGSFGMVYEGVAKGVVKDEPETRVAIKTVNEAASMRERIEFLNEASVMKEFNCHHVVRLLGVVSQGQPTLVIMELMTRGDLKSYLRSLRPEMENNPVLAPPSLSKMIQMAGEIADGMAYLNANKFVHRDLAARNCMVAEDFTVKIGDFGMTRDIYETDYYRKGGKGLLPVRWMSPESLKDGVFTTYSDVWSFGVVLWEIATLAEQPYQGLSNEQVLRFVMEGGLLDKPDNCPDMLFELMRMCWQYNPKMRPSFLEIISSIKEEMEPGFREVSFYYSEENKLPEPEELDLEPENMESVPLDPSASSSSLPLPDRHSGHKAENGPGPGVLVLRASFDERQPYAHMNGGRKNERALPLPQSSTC
Take `COc1cc(N(C)CCN(C)CCO)ccc1Nc1ncc(Cl)c(-c2cnc3c(F)cccn23)n1` [Example 221, 2-[2-[4-[[5-chloro-4-(8-fluoroimidazo[1,2-a]pyridin-3-yl)pyrimidin-2-yl]amino]-3-methoxy-N-methyl-anilino]ethyl-methyl-amino]ethanol]: the IC50 worked out at 0.01 µM.

`COc1cc(OC[C@H]2CCCN2)ccc1Nc1ncc(Cl)c(-c2cnc3ccccn23)n1` [Example 6.1, 5-chloro-4-imidazo[1,2-a]pyridin-3-yl-N-[2-methoxy-4-[[(2R)-pyrrolidin-2-yl]methoxy]phenyl]pyrimidin-2-amine]: the half-inhibitory concentration (IC50) was 0.012 µM. As for `CNC(=O)C1CC(c2ccc(Nc3ncc(Cl)c(-c4cnc5ccccn45)n3)c(OC)c2)CN1` (stereo not shown) [Example 3.27, 4-[4-[(5-chloro-4-imidazo[1,2-a]pyridin-3-yl-pyrimidin-2-yl)amino]-3-methoxy-phenyl]-N-methyl-pyrrolidine-2-carboxamide], the IC50 came out at 0.006 µM. The same measure for `COc1cc(CC(=O)N2CCN(CCO)CC2)ccc1Nc1ncc(Cl)c(-c2cnc3ccccn23)n1` [Example 37, 2-[4-[(5-chloro-4-imidazo[1,2-a]pyridin-3-yl-pyrimidin-2-yl)amino]-3-methoxy-phenyl]-1-[4-(2-hydroxyethyl)piperazin-1-yl]ethanone]: 0.031 µM; for `COc1cc(N2CCN(C(C)=O)CC2)ccc1Nc1ncc(C#N)c(-c2cnc3ccccn23)n1` [Example 118, 2-[[4-(4-acetylpiperazin-1-yl)-2-methoxy-phenyl]amino]-4-imidazo[1,2-a]pyridin-3-yl-pyrimidine-5-carbonitrile]: 0.092 µM; for `COc1cc(C2CCN(C(C)=O)CC2)ccc1Nc1ncc(C)c(-c2cnn3ccccc23)n1` [Example 233, 1-[4-[3-methoxy-4-[(5-methyl-4-pyrazolo[1,5-a]pyridin-3-yl-pyrimidin-2-yl)amino]phenyl]-1-piperidyl]ethanone]: 0.009 µM. For `COc1cc(C2CCNCC2)ccc1Nc1ncc(F)c(-c2cnn3ccccc23)n1` [Example 173, 5-fluoro-N-[2-methoxy-4-(4-piperidyl)phenyl]-4-pyrazolo[1,5-a]pyridin-3-yl-pyrimidin-2-amine], the IC50 is 0.01 µM. For `COc1cc(CN2CCC[C@H](O)C2)ccc1Nc1ncc(Cl)c(-c2cnc3ccccn23)n1` [Example 21.17, (3S)-1-[[4-[(5-chloro-4-imidazo[1,2-a]pyridin-3-yl-pyrimidin-2-yl)amino]-3-methoxy-phenyl]methyl]piperidin-3-ol] the value was 0.028 µM; for `COc1cc(N2CCN(C(C)(C)CO)CC2)ccc1Nc1ncc(F)c(-c2cnc3ccc(F)cn23)n1` [Example 261, 2-[4-[4-[[5-fluoro-4-(6-fluoroimidazo[1,2-a]pyridin-3-yl)pyrimidin-2-yl]amino]-3-methoxy-phenyl]piperazin-1-yl]-2-methyl-propan-1-ol], 0.023 µM; for `COc1cc(N2CCN(C(=O)[C@@H](C)O)CC2)ccc1Nc1ncc(Cl)c(-c2cnc3c(F)cccn23)n1` [Example 178, (2R)-1-[4-[4-[[5-chloro-4-(8-fluoroimidazo[1,2-a]pyridin-3-yl)pyrimidin-2-yl]amino]-3-methoxy-phenyl]piperazin-1-yl]-2-hydroxy-propan-1-one], 0.015 µM. For `COc1cc(N2CCN(C(C)(C)CO)CC2)ccc1Nc1ncc(C)c(-c2cnc3cc(C)ccn23)n1` [Example 262, 2-[4-[3-methoxy-4-[[5-methyl-4-(7-methylimidazo[1,2-a]pyridin-3-yl)pyrimidin-2-yl]amino]phenyl]piperazin-1-yl]-2-methyl-propan-1-ol], the IC50 was found to be 0.039 µM. Consider `COc1cc(N2CCNC(C(=O)N(C)C)C2)ccc1Nc1ncc(Cl)c(-c2cnc3ccccn23)n1` (stereo not shown) [Example 19, 4-[4-[(5-chloro-4-imidazo[1,2-a]pyridin-3-yl-pyrimidin-2-yl)amino]-3-methoxy-phenyl]-N,N-dimethyl-piperazine-2-carboxamide], for which the concentration for half-maximal inhibition (IC50) is 0.011 µM.

For the compound `COc1cc(CC(=O)N2CC[C@H](O)C2)ccc1Nc1ncc(Cl)c(-c2cnc3ccccn23)n1` [Example 38, 2-[4-[(5-chloro-4-imidazo[1,2-a]pyridin-3-yl-pyrimidin-2-yl)amino]-3-methoxy-phenyl]-1-[(3S)-3-hydroxypyrrolidin-1-yl]ethanone], the concentration for half-maximal inhibition (IC50) was 0.044 µM. For `COc1cc(N2CCN(CCO)CC2)c(C)cc1Nc1ncc(Cl)c(-c2cnc3ccccn23)n1` [Example 279, 2-[4-[4-[(5-chloro-4-imidazo[1,2-a]pyridin-3-yl-pyrimidin-2-yl)amino]-5-methoxy-2-methyl-phenyl]piperazin-1-yl]ethanol] the value was 0.008 µM. As for `COc1cc(OC2CN(C(=O)[C@H](C)O)C2)ccc1Nc1ncc(Cl)c(-c2cnc3ccccn23)n1` [Example 27.1, (2S)-1-[3-[4-[(5-chloro-4-imidazo[1,2-a]pyridin-3-yl-pyrimidin-2-yl)amino]-3-methoxy-phenoxy]azetidin-1-yl]-2-hydroxy-propan-1-one], the half-inhibitory concentration (IC50) amounted to 0.031 µM. Regarding `COc1cc(N2CCN(C)CC2)ccc1Nc1ncc(F)c(-c2cnc3ccccn23)n1` [Example 119, 5-fluoro-4-imidazo[1,2-a]pyridin-3-yl-N-[2-methoxy-4-(4-methylpiperazin-1-yl)phenyl]pyrimidin-2-amine], the IC50 was determined as 0.095 µM. For `COc1cc(OC2CCN(C(=O)C(C)O)CC2)ccc1Nc1ncc(Cl)c(-c2cnc3ccccn23)n1` (stereo not shown) [Example 9, 1-[4-[4-[(5-chloro-4-imidazo[1,2-a]pyridin-3-yl-pyrimidin-2-yl)amino]-3-methoxy-phenoxy]-1-piperidyl]-2-hydroxy-propan-1-one] the value was 0.021 µM. For `CCNCC(=O)N1CCN(c2ccc(Nc3ncc(Cl)c(-c4cnc5ccccn45)n3)c(OC)c2)CC1` [Example 24.11, 1-[4-[4-[(5-chloro-4-imidazo[1,2-a]pyridin-3-yl-pyrimidin-2-yl)amino]-3-methoxy-phenyl]piperazin-1-yl]-2-ethylamino-ethanone] the value was 0.015 µM; for `COc1cc(C2CCN(C(=O)CO)CC2)ccc1Nc1ncc(Cl)c(-c2cnc3ccc(F)cn23)n1` [Example 244, 1-[4-[4-[[5-chloro-4-(6-fluoroimidazo[1,2-a]pyridin-3-yl)pyrimidin-2-yl]amino]-3-methoxy-phenyl]-1-piperidyl]-2-hydroxy-ethanone], 0.005 µM; for `COc1cc(N2CCNCC2)ccc1Nc1ncc(F)c(-c2cnc3ccccn23)n1` [Example 73, 5-fluoro-4-imidazo[1,2-a]pyridin-3-yl-N-(2-methoxy-4-piperazin-1-yl-phenyl)pyrimidin-2-amine], 0.071 µM. For `COc1cc(N2CCN(C[C@H](C)O)CC2)ccc1Nc1ncc(F)c(-c2cnc3ccccn23)n1` [Example 89, (2S)-1-[4-[4-[(5-fluoro-4-imidazo[1,2-a]pyridin-3-yl-pyrimidin-2-yl)amino]-3-methoxy-phenyl]piperazin-1-yl]propan-2-ol] the value was 0.034 µM. In the case of `COc1ccc(N2CCCC2)cc1Nc1ncc(Cl)c(-c2cnc3ccccn23)n1` [Example 3.8, 5-chloro-4-imidazo[1,2-a]pyridin-3-yl-N-(2-methoxy-5-pyrrolidin-1-yl-phenyl)pyrimidin-2-amine], the IC50 came out at 0.309 µM. The same measure for `COc1cc(N2CCN(C(C)=O)CC2)ccc1Nc1ncc(Cl)c(-c2cnc3cc(CN(C)C(C)=O)ccn23)n1` [Example 188, N-[[3-[2-[4-(4-acetylpiperazin-1-yl)-2-methoxy-anilino]-5-chloro-pyrimidin-4-yl]imidazo[1,2-a]pyridin-7-yl]methyl]-N-methyl-acetamide]: 0.12 µM.

With `COCCN1CCN(CCOc2ccc(Nc3ncc(Cl)c(-c4cnc5ccccn45)n3)c(OC)c2)CC1` [Example 3.12, 5-chloro-4-imidazo[1,2-a]pyridin-3-yl-N-[2-methoxy-4-[2-[4-(2-methoxyethyl)piperazin-1-yl]ethoxy]phenyl]pyrimidin-2-amine], the IC50 was 0.044 µM. The same measure for `COc1cc(CN[C@@H](C)CO)ccc1Nc1ncc(Cl)c(-c2cnc3ccccn23)n1` [Example 21.19, (2S)-2-[[4-[(5-chloro-4-imidazo[1,2-a]pyridin-3-yl-pyrimidin-2-yl)amino]-3-methoxy-phenyl]methylamino]propan-1-ol]: 0.023 µM. With `COc1cc(N2CC3CN(C(=O)CN(C)C)CC(C2)O3)ccc1Nc1ncc(Cl)c(-c2cnc3c(F)cccn23)n1` [Example 211, 1-[3-[4-[[5-chloro-4-(8-fluoroimidazo[1,2-a]pyridin-3-yl)pyrimidin-2-yl]amino]-3-methoxy-phenyl]-9-oxa-3,7-diazabicyclo[3.3.1]nonan-7-yl]-2-(dimethylamino)ethanone], the IC50 was determined as 0.019 µM.

Turning to `COc1cc(CN2CC[C@@H](O)C2)ccc1Nc1ncc(Cl)c(-c2cnc3ccccn23)n1` [Example 21.18, (3R)-1-[[4-[(5-chloro-4-imidazo[1,2-a]pyridin-3-yl-pyrimidin-2-yl)amino]-3-methoxy-phenyl]methyl]pyrrolidin-3-ol], the IC50 came out at 0.017 µM.

Regarding `CNC(=O)CN1CCN(c2ccc(Nc3ncc(Cl)c(-c4cnc5ccccn45)n3)c(OC)c2)CC1` [Example 66, 2-[4-[4-[(5-chloro-4-imidazo[1,2-a]pyridin-3-yl-pyrimidin-2-yl)amino]-3-methoxy-phenyl]piperazin-1-yl]-N-methyl-acetamide], the IC50 was 0.015 µM. The same measure for `COc1cc(C2CN(C(=O)[C@@H](C)O)C2)ccc1Nc1ncc(Cl)c(-c2cnn3ccccc23)n1` [Example 135B]: 0.008 µM; for `COc1ccc(N2CC3CNCC(C2)O3)cc1Nc1ncc(Cl)c(-c2cnc3c(F)cccn23)n1` [Example 192, 5-chloro-4-(8-fluoroimidazo[1,2-a]pyridin-3-yl)-N-[2-methoxy-5-(9-oxa-3,7-diazabicyclo[3.3.1]nonan-7-yl)phenyl]pyrimidin-2-amine]: 0.53 µM; for `CCC(=O)N1CCN(c2ccc(Nc3ncc(Cl)c(-c4cnc5ccccn45)n3)c(OC)c2)CC1` [Example 42, 1-[4-[4-[(5-chloro-4-imidazo[1,2-a]pyridin-3-yl-pyrimidin-2-yl)amino]-3-methoxy-phenyl]piperazin-1-yl]propan-1-one]: 0.018 µM.

Broadly, the IC50 is the concentration needed to halve the response being measured.
